The values that follow come from ChEMBL document CHEMBL1122893, “Bile acids with cyclopropane-containing side chain. 2. Synthesis and properties of 3 alpha,7 beta-dihydroxy-22,23-methylene-5 beta-cholan-24-oic acid (2-sulfoethyl)amide” (J Med Chem, 1985).

The nature of the assay: Evaluated for critical micellular concentration (CMC) by dye solubilization method.

On to `CC(CCC(=O)NCCS(=O)(=O)O)C1CC[C@H]2[C@@H]3[C@@H](O)CC4C[C@H](O)CCC4(C)[C@H]3CCC12C` (stereo partly drawn), for which the CMC came to 18 mM.
With `CC(C1CC1C(=O)O)C1CC[C@H]2[C@@H]3[C@@H](O)CC4C[C@H](O)CCC4(C)[C@H]3CCC12C` (stereo partly drawn) the figure was 15.5 mM; with `CC(C1CC1C(=O)NCCS(=O)(=O)O)C1CC[C@H]2[C@@H]3[C@@H](O)CC4C[C@H](O)CCC4(C)[C@H]3CCC12C` (stereo partly drawn), 14.5 mM.
